# Data taken from patent US20210284952A1, “METHODS OF APPLYING ACETATE TOXICITY AND INDUCING ACETATE UPTAKE IN MICROALGAE CULTURES” (HELIAE DEVELOPMENT LLC, priority 2016, published 2021).
# Structures can show the parent of a compound that is named as a salt. Where two headings read alike, the source gives them in different places.
# Key:
# [1] = tested on: Aurantiochytrium sp. HS399
# Excerpt: Because the microalgae pH homeostasis will tend to maintain an internal cell pH slightly above neutral (about 7-8) in response to medium acidification, the acetate built up inside the cell may be modeled. The internal acetate concentration of a cell may be calculated from the external culture pH, and the residual acetate concentration in the culture, assuming that the internal pH of the cell and the ionic strength are maintained constant. The pH gradient between the internal cell pH and pH of the culture medium outside the cell may be calculated with the following equation derived from the Hendersen Hassleback equation, from which the internal acetate concentration can be solved: […]
# An experiment was conducted to determine the acetate toxicity of Aurantiochytrium sp. HS399. […] The initial culture medium was supplemented with 30 g/L glycerol and 0.5 or 5 g/L acetate.
# [2] = tested on: Aurantiochytrium sp. HS399; conditions: pH 5.5 with Acetic Acid, pH 7.0 with HCl
# Procedure: (§1) An experiment was performed to determine the effectiveness of applying acetate toxicity to microalgae cultures grown in the presence of a non-acetate organic carbon source, in this case glycerol. Aurantiochytrium sp. HS399 was grown in a 100 L open pond. […] Trace and vitamins stocks were prepared according to Ashford, et al. 2000. Lipids 35, 1377-1386. The ponds were inoculated at 1 v/v using exponentially growing cultures. Aeration was maintained at 0.5 vvm using a porous hose. […] Cytosolic (internal cell) acetate concentration was calculated using the previously described model.
# total aerobic bacteria = conditions: for Contamination: pH 5.5 with Acetic Acid, pH 7.0 with HCl
# Procedure: as §1
# Chlorella sp. HS26 [3] = tested on: Chlorella sp. HS26
# Procedure: The experiment of Example 11 was repeated with Chlorella sp. HS26 to evaluate the impact of pH induced acetate toxicity on microalgal lipid and protein accumulation. The two treatments of pH 6.5 and pH 7.5 were set up in outdoor raceway ponds utilizing a pH auxostat with a set point at the designated pH values. The microalgae were cultured for 8 days. Duplicate cultures of each treatment were performed in the experiment. […] The cultures were inoculated at a density of 1 g/L, cultured at a temperature of 25° C., and received natural sunlight.
# [4] = tested on: Aurantiochytrium sp. HS399; remark: listed apart in the source
# Chlorella sp. HS26 [5] = conditions: pH-auxostat feed
# Excerpt: Samples were taken daily to measure dry weight and residual acetate concentration of the culture medium.
# Chlorella sp. HS26 [6] = tested on: Chlorella sp. HS26; remark: listed apart in the source
# Procedure: An experiment was conducted with Chlorella sp. HS26 to evaluate the impact of pH induced acetate toxicity on microalgal growth during a batch culturing process. The two treatments of pH 6.5 and pH 7.5 were set up in outdoor raceway ponds utilizing a pH auxostat with a set point at the designated pH values and cultured for seven days. Duplicate cultures of each treatment were performed in the experiment. […] The cultures were inoculated at a density of 1 g/L, cultured at a temperature of 25° C., and received natural sunlight.
# Chlorella sp. HS26 [7] = conditions: pH 6±0.2 auxostat, dissolved oxygen
# Procedure: An experiment was performed to determine the effect on respiration in microalgae Chlorella sp. HS26 in response to acetate toxicity conditions (i.e., the increase of the internal cell acetate concentration). […] Data presented corresponds to a continuous 200 L bubble column culture growing in axenic conditions at culture density of 12 g/L, that was incubated at a temperature of 25 f 0.3° C., and aerated at a rate of 30 LPM. The pH probe: E&H, Digital non-glass pH sensor, Tophit CPS471D helped to maintain the pH at 6±0.2 in a pH auxostat mode. The DO was recorder with a Hamilton, EasyFerm Plus Arc 120, P/N: 242091/06 probe. Samples were taken before and after each pulse and analyzed for residual acetate using HPLC.
# [8] = tested on: Aurantiochytrium sp. HS399; conditions: pH 6±0.2 auxostat, dissolved oxygen
# Procedure: An experiment was performed to determine the effect on respiration in microalgae Aurantiochytrium sp. HS399 in response to acetate toxicity (i.e., the increase of the internal cell acetate concentration). […] Data presented corresponds to a 4 day old 30 L bubble column bag bioreactor growing in axenic conditions at culture density of 24 g/L, that was incubated at a temperature of 29.5±0.3° C., and aerated at a rate of 10 LPM. The pH probe: E&H, Digital non-glass pH sensor, Tophit CPS471D helped to maintain the pH at 6±0.2 in a pH auxostat mode. The DO was recorder with a Hamilton, EasyFerm Plus Arc 120, P/N: 242091/06 probe. Samples were taken before and after each pulse and analyzed for residual acetate using HPLC. Internal acetate was fluctuations were calculated based on medium residual acetate by integrating the previously presented equation:
# [9] = tested on: Aurantiochytrium sp. HS399; conditions: nitrogen source
# Procedure: An experiment was conducted to determine the effect of different nitrogen sources on the internal cell acetate concentration for cultures of Aurantiochytrium sp. HS399 cultures. […] 7H2O (2.5), KCl (0.5), CaCl2 (0.1), KH2PO4 (0.5) vitamins (1 ml/L) and trace metal (5 ml/L). […] The ponds were inoculated at 1 v/v using exponentially growing cultures. Aeration was maintained at 0.5 vvm using a porous hose. Equimolar nitrogen concentrations were added top each pond reactor. […] Culture dry weights (filtration) and residual acetate (HPLC) in the culture medium were analyzed daily. Cytosolic (internal cell) acetate concentration was calculated using the previously described model.
compound,measurement,setting,value
"CC(=O)O [Acetic Acid, acetic acid]",growth,[1]; 53 g/L internal acetate concentration,tolerated
same,growth,[1]; 153 g/l internal acetate concentration,inhibited
same,growth,[1]; 329 g/L internal acetate concentration,did not proliferate
same,Cell Dry Weight,"[1]; pH 4.5, day 0",0.3 g/L
same,Cell Dry Weight,"[1]; pH 4.5, day 1",1.8 g/L
same,Cell Dry Weight,"[1]; pH 4.5, day 2",4.5 g/L
same,Cell Dry Weight,"[1]; pH 4.5, day 3",6.4 g/L
same,Cell Dry Weight,"[1]; pH 4.5, day 4",7.8 g/L
same,Cell Dry Weight,"[1]; pH 4.5, day 5",8.4 g/L
same,Cell Dry Weight,"[1]; pH 4.5, day 6",9.3 g/L
same,Cell Dry Weight,"[1]; pH 5.0, day 0",0.3 g/L
same,Cell Dry Weight,"[1]; pH 5.0, day 1",2.1 g/L
same,Cell Dry Weight,"[1]; pH 5.0, day 2",5.6 g/L
same,Cell Dry Weight,"[1]; pH 5.0, day 3",8.1 g/L
same,Cell Dry Weight,"[1]; pH 5.0, day 4",9.9 g/L
same,Cell Dry Weight,"[1]; pH 5.0, day 5",10.6 g/L
same,Cell Dry Weight,"[1]; pH 5.0, day 6",11.4 g/L
same,Cell Dry Weight,"[1]; pH 5.5, day 0",0.3 g/L
same,Cell Dry Weight,"[1]; pH 5.5, day 1",1.9 g/L
same,Cell Dry Weight,"[1]; pH 5.5, day 2",5.5 g/L
same,Cell Dry Weight,"[1]; pH 5.5, day 3",8.5 g/L
same,Cell Dry Weight,"[1]; pH 5.5, day 4",10.8 g/L
same,Cell Dry Weight,"[1]; pH 5.5, day 5",11.4 g/L
same,Cell Dry Weight,"[1]; pH 5.5, day 6",12.0 g/L
same,Cell Dry Weight,"[1]; pH 7.0, day 0",0.3 g/L
same,Cell Dry Weight,"[1]; pH 7.0, day 1",2.7 g/L
same,Cell Dry Weight,"[1]; pH 7.0, day 2",7.1 g/L
same,Cell Dry Weight,"[1]; pH 7.0, day 3",9.8 g/L
same,Cell Dry Weight,"[1]; pH 7.0, day 4",12.0 g/L
same,Cell Dry Weight,"[1]; pH 7.0, day 5",12.7 g/L
same,Cell Dry Weight,"[1]; pH 7.0, day 6",12.7 g/L
same,Cell Dry Weight,[2]; day 0,0.0 g/L
same,Cell Dry Weight,[2]; day 1,1.1 g/L
same,Cell Dry Weight,[2]; day 2,3.5 g/L
same,Cell Dry Weight,[2]; day 3,6.2 g/L
same,Cell Dry Weight,[2]; day 4,7.7 g/L
same,Cell Dry Weight,[2]; day 5,9.7 g/L
same,Contamination,total aerobic bacteria; day 0,5.5E+04 CFU/mL
same,Contamination,total aerobic bacteria; day 1,4.8E+05 CFU/mL
same,Contamination,total aerobic bacteria; day 2,5.7E+07 CFU/mL
same,Contamination,total aerobic bacteria; day 3,4.0E+10 CFU/mL
same,Contamination,total aerobic bacteria; day 4,4.6E+12 CFU/mL
same,Contamination,total aerobic bacteria; day 5,8.0E+14 CFU/mL
same,decrease of aerobic bacteria counts versus other treatment,"total aerobic bacteria; throughout the batch, acetate toxicity conditions (pH 5.5)",≥ 3 log
same,Ash,"Chlorella sp. HS26 [3]; pH 6.5, day 0",26 6 % DW
same,Total Carbohydrates,"Chlorella sp. HS26 [3]; pH 6.5, day 0",28.51 % DW
same,Total Lipids,"Chlorella sp. HS26 [3]; pH 6.5, day 0",9.82 % DW
same,Total Protein,"Chlorella sp. HS26 [3]; pH 6.5, day 0",35.07 % DW
same,Ash,"Chlorella sp. HS26 [3]; pH 6.5, day 8",3.26 % DW
same,Total Carbohydrates,"Chlorella sp. HS26 [3]; pH 6.5, day 8",32.13 % DW
same,Total Lipids,"Chlorella sp. HS26 [3]; pH 6.5, day 8",29.34 % DW
same,Total Protein,"Chlorella sp. HS26 [3]; pH 6.5, day 8",35.28 % DW
same,Ash,"Chlorella sp. HS26 [3]; pH 7.5, day 0",26 6 % DW
same,Total Carbohydrates,"Chlorella sp. HS26 [3]; pH 7.5, day 0",28.51 % DW
same,Total Lipids,"Chlorella sp. HS26 [3]; pH 7.5, day 0",9.82 % DW
same,Total Protein,"Chlorella sp. HS26 [3]; pH 7.5, day 0",35.07 % DW
same,Ash,"Chlorella sp. HS26 [3]; pH 7.5, day 8",3.05 % DW
same,Total Carbohydrates,"Chlorella sp. HS26 [3]; pH 7.5, day 8",33.62 % DW
same,Total Lipids,"Chlorella sp. HS26 [3]; pH 7.5, day 8",23.66 % DW
same,Total Protein,"Chlorella sp. HS26 [3]; pH 7.5, day 8",39.69 % DW
same,growth inhibited,[4]; internal acetate concentration 53 g/L,not
same,growth inhibited,[4]; internal acetate concentration 153 g/L,inhibited
same,Cell Dry Weights,"[4]; pH 4.5, day 0",0.4 g/L
same,Cell Dry Weights,"[4]; pH 4.5, day 1",0.5 g/L
same,Cell Dry Weights,"[4]; pH 4.5, day 2",0.3 g/L
same,Cell Dry Weights,"[4]; pH 4.5, day 3",0.2 g/L
same,Cell Dry Weights,"[4]; pH 4.5, day 4",0.3 g/L
same,Cell Dry Weights,"[4]; pH 4.5, day 5",0.0 g/L
same,Cell Dry Weights,"[4]; pH 5.0, day 0",0.4 g/L
same,Cell Dry Weights,"[4]; pH 5.0, day 1",2.3 g/L
same,Cell Dry Weights,"[4]; pH 5.0, day 2",5.0 g/L
same,Cell Dry Weights,"[4]; pH 5.0, day 3",7.1 g/L
same,Cell Dry Weights,"[4]; pH 5.0, day 4",8.9 g/L
same,Cell Dry Weights,"[4]; pH 5.0, day 5",10.0 g/L
same,Cell Dry Weights,"[4]; pH 5.5, day 0",0.4 g/L
same,Cell Dry Weights,"[4]; pH 5.5, day 1",2.7 g/L
same,Cell Dry Weights,"[4]; pH 5.5, day 2",5.6 g/L
same,Cell Dry Weights,"[4]; pH 5.5, day 3",8.0 g/L
same,Cell Dry Weights,"[4]; pH 5.5, day 4",10.2 g/L
same,Cell Dry Weights,"[4]; pH 5.5, day 5",11.6 g/L
same,Cell Dry Weights,"[4]; pH 7.0, day 0",0.4 g/L
same,Cell Dry Weights,"[4]; pH 7.0, day 1",1.5 g/L
same,Cell Dry Weights,"[4]; pH 7.0, day 2",2.9 g/L
same,Cell Dry Weights,"[4]; pH 7.0, day 3",4.1 g/L
same,Cell Dry Weights,"[4]; pH 7.0, day 4",5.4 g/L
same,Cell Dry Weights,"[4]; pH 7.0, day 5",6.3 g/L
same,Cell Dry Weight,Chlorella sp. HS26 [5]; day 0,0.3 g/L
same,Cell Dry Weight,Chlorella sp. HS26 [5]; day 1,0.8 g/L
same,Cell Dry Weight,Chlorella sp. HS26 [5]; day 2,2.7 g/L
same,Cell Dry Weight,Chlorella sp. HS26 [5]; day 3,3.7 g/L
same,Cell Dry Weight,Chlorella sp. HS26 [5]; day 4,4.7 g/L
same,Cell Dry Weight,Chlorella sp. HS26 [5]; day 5,5.3 g/L
same,Cell Dry Weight,Chlorella sp. HS26 [5]; day 6,5.3 g/L
same,Aerobic bacteria count,"Aerobic bacteria; pH set point 5.5, day 0.0",1.1E+04 CFU/mL
same,Aerobic bacteria count,"Aerobic bacteria; pH set point 5.5, day 0.9",2.1E+04 CFU/mL
same,Aerobic bacteria count,"Aerobic bacteria; pH set point 5.5, day 1.9",2.2E+04 CFU/mL
same,average three-day productivity,Chlorella sp. HS26 [6]; pH 6.5 cultures,1.14 g/L/day
same,average three-day productivity,Chlorella sp. HS26 [6]; pH 7.5 cultures,0.76 g/L/day
same,respiration rate in response to acetic acid toxicity,Chlorella sp. HS26 [7],increases its respiration rate
same,respiration rate in response to acetic acid toxicity,[8],increases respiration rate
"Cl [HCl, hydrochloric acid]",Cell Dry Weight,[2]; day 0,0.1 g/L
same,Cell Dry Weight,[2]; day 1,1.6 g/L
same,Cell Dry Weight,[2]; day 2,4.3 g/L
same,Cell Dry Weight,[2]; day 3,5.5 g/L
same,Cell Dry Weight,[2]; day 4,6.5 g/L
same,Cell Dry Weight,[2]; day 5,8.1 g/L
same,Contamination,total aerobic bacteria; day 0,1.9E+05 CFU/mL
same,Contamination,total aerobic bacteria; day 1,2.9E+10 CFU/mL
same,Contamination,total aerobic bacteria; day 2,1.3E+16 CFU/mL
same,Contamination,total aerobic bacteria; day 3,2.1E+18 CFU/mL
same,Contamination,total aerobic bacteria; day 4,1.4E+17 CFU/mL
same,Contamination,total aerobic bacteria; day 5,3.4E+21 CFU/mL
"N[C@@H](CCC(=O)O)C(=O)[O-].[Na+] [MSG, monosodium glutamate]",Cell Dry Weight,[9]; day 0,0.2 g/L
same,Cell Dry Weight,[9]; day 1,3.5 g/L
same,Cell Dry Weight,[9]; day 2,6.8 g/L
same,Cell Dry Weight,[9]; day 3,8.1 g/L
same,Cell Dry Weight,[9]; day 4,9.7 g/L
same,Cell Dry Weight,[9]; day 5,10.2 g/L
"N [NH3, ammonia]",Cell Dry Weight,[9]; day 0,0.2 g/L
same,Cell Dry Weight,[9]; day 1,1.9 g/L
same,Cell Dry Weight,[9]; day 2,7.4 g/L
same,Cell Dry Weight,[9]; day 3,7.8 g/L
same,Cell Dry Weight,[9]; day 4,9.9 g/L
same,Cell Dry Weight,[9]; day 5,10.3 g/L
